The values below come from article PMC11905336, “Pyrrole‐Tethered Bisbenzoxazole Derivatives: Apoptosis‐Inducing Agents Targeting Breast Cancer Cells” (Chemical Biology & Drug Design, 2025).

Molecules are shown by their SMILES. Like-named read-outs stand apart in the source and are kept apart here. Bounds are passed on as bounds.

The test system of one data set is MCF‐7 cell line. Further details: method as in earlier work. The note with it: MCF-7, XTT assay, ref Kuzu, Hepokur, Alagoz, et al. [2022], Turkmenoglu; cited from earlier work.
The test system of data set [1] is HeLa and HepG2 cell lines. Further details: method as in Srivastava et al. [2015]. The conditions noted are these: ref Srivastava et al. [2015]; cited from earlier work.
For data set [2], the system named is A549 and MCF‐7 cell lines. Further details: method as in Belal and Abdelgawad [2017]. The note with it: ref Belal and Abdelgawad [2017]; cited from earlier work.
In another data set the test system is MCF‐7. Further details: method as in Desai et al. [2020]. The conditions noted are these: ref Desai et al. [2020]; cited from earlier work.
A further data set concerns MDA‐MB‐231. On the set-up: method as in Desai et al. [2020]. The note with it: ref Desai et al. [2020]; cited from earlier work.
Data set [3] concerns MCF‐7 cells. Further details: method as in earlier work. The conditions noted are these: MCF-7, cell cycle analysis, ref Kuzu, Hepokur, Alagoz, et al. [2022], Turkmenoglu; cited from earlier work.
A further data set relates to Vero healthy cell line. Further details: method as in Ersan et al. [2020]. The note with it: ref Ersan et al. [2020]; cited from earlier work.
Data set [4] has as its system A549, A498, HeLa, and HepG2. Further details: method as in Ersan et al. [2020]. The conditions noted are these: ref Ersan et al. [2020], cited from earlier work.
In the next data set the test system is HDFa cell lines. Kind of data set: Cytotoxicity on healthy dermal fibroblasts (MTT / xCELLigence real-time cell analysis). In kind it is cell-based. The note with it: Homo sapiens. On the procedure: The cytotoxicity of these derivatives was also assessed in dermal fibroblast cells using xCELLigence analysis as detailed in the Supporting Information.
(§1) The human dermal fibroblast (HDFa) and human breast cancer cells (MCF‐7) were obtained from the American Type Culture Collection (ATCC; Manassas, VA, USA). Cells were cultured in RPMI medium (MCF‐7) and DMEM medium (HDFa) was supplemented with 10% FBS, 1% penicillin–streptomycin, 1% amphotericin, and 2.5% L‐glutamine at 37°C in a 5% CO2 incubator.
xCELLigence Real‐Time Cell Analysis. The xCELLigence system (Real‐Time Cell Analyzer (RTCA) Dual Plate (DP) (Roche Diagnostics GmbH, Penzberg)) was used for real‐time monitoring of cell viability without the need for labeling. A total of 1 × 10^4 HDFa cells were seeded into each well of the E‐plate, and the cell proliferation curve was monitored for 24 h. […] The Cell Index (CI) value was automatically measured every hour for each well using RTCA Software (version 1.2.1) (Yetkin et al. [2021]; Yıldırım et al. [2022]).

For data set [5], the system named is MCF‐7 cells. As to the kind of experiment: Apoptosis/necrosis by flow cytometry, Annexin V/propidium iodide, MCF-7. Type of data set: cell-based, human. The conditions noted are these: MCF-7, 48 h, p < 0.05. On the procedure:
Flow cytometry analysis was performed to evaluate the percentages of apoptosis for these compounds compared to tamoxifen. MCF‐7 cell suspensions treated with each compound for 48 h were stained using an apoptosis detection kit and subsequently analyzed using flow cytometry.
(§2) The assessment of apoptosis through flow cytometry is a valuable method for obtaining quantitative results to determine the levels of apoptosis and necrosis in cells. In our study, the 48th‐hour apoptosis levels of three synthases with the lowest IC50 values (PTB derivatives B8, B14, and B18) were evaluated. To assess apoptosis levels, MCF‐7 cells and healthy fibroblast cells were incubated with these synthases for 48 h. After this incubation period, the cells were treated with Annexin‐V APC and PE propidium iodide (PI) dyes to examine apoptosis levels. Then, to examine the levels of apoptosis, the cells were incubated at a concentration of 2 × 10^5 cells/mL with 5 μL Annexin‐V APC and 10 μL PI dyes in 100 μL Binding buffer for 15 min at room temperature. Samples were then washed twice in PBS, and the BD FACS ARIA III flow cytometry device was used to determine the percentage of apoptotic cells. (Ayaz et al. [2022]).

The subject of the next data set is MCF‐7 cell lines. Kind of data set: MTT assay, cytotoxicity on MCF-7 cells. Type of data set: cell-based, human. The conditions noted are these: for IC50: Homo sapiens, MTT; for IC50 in MCF-7 compared to tamoxifen (fold lower): MCF-7, MTT. On the procedure:
The cytotoxic effects of PTB derivatives on MCF‐7 breast cancer cells were evaluated using the MTT assay at various concentrations (100 nM, 1 μM, 10 μM, 50 μM, and 100 μM).
as §1
MTT Method. The MTT method is used to detect and quantify living organisms cultured with the method colorimetrically. This method relies on intact mitochondria cleaving the tetrazolium ring of the MTT dye. The MTT substance is absorbed and reduced to a colorful, water‐insoluble formazan by a mitochondria‐dependent reaction. Cell viability is measured based on the MTT reduction property, and the density of dye obtained from MTT analysis indicates the number of viable cells. In this study, cell viability was assessed using the MTT (0.5 mg/mL) solution that was added to each well. […] After adding properties to cultures, they were kept at 37°C for 24 h and overnight. Then, at 48 and 72 h after applying the molecules, 10 μL of MTT was added to each well and incubated under similar conditions for 4 h. Absorbance spectrophotometry was performed at a wavelength of 570 nm using the IC50 = [(control absorbents‐sample absorbents)/control absorbents] × 100 calculation method (Khorsandi et al. [2017]).
In general terms: Formazan colour is commonly taken as a measure of viable cells.

Data set [6] deals with MCF‐7 cells. Kind of data set: Cell cycle phases by flow cytometry with propidium iodide, MCF-7. Type of data set: cell-based, human. The note with it: for Change of G2 phase averages vs control: MCF-7, 48 h at IC50; for Change of G1 phase vs control / Change of S phase vs control: MCF-7, 48 h at IC50, p < 0.05. On the procedure:
In the flow cytometry analysis, cell cycle kits facilitated the removal of cytoskeletal and nuclear proteins by disrupting lipid components of the cell membrane using detergents. […] Consequently, we were able to identify abnormal DNA distributions and cell cycle phase profiles in the MCF‐7 breast cancer cell line.
MCF‐7 cells were seeded in a 6‐well plate at a density of 1 × 10^6 cells and incubated for 24 h. […] MCF‐7 cells were then trypsinized, stained, and analyzed using a BD FACSAria III flow cytometer (BD Biosciences, Bedford, MA, USA) with FACS Diva Software and ModFit LT.
The cell cycle kit (MCE USA‐HY‐K1071‐50 T) works on the principle of dissolving the lipids in the cell membrane with the help of detergents. This kit was used to identify cells with abnormal DNA and cell cycle phase distributions in a breast cancer cell line. It was analyzed by removing the cytoskeleton and nuclear proteins with the help of trypsin and digesting the cellular RNA by enzymes. Cells were seeded at 1 × 10^6 in a 6‐well plate and incubated for 24 h. […] Cells were removed by adding trypsin to adherent cells. They were centrifuged at 1000 g for 3–5 min at 4°C, and then the supernatant was discarded. One milliliter of prechilled PBS was added to resuspend the cells, centrifuged at 1000 g for 3–5 min at 4°C, and detected via BD FACSAria III flow cytometer (BD Biosciences, Bedford, MA, USA). Percentage data were obtained using FACS Diva Software and ModFit LT (Şimşek et al. [2020]).
Background: A flow cytometer gives signals particle by particle.

A further data set relates to HDFa cells. Kind of data set: Apoptosis/necrosis by flow cytometry, Annexin V/propidium iodide, HDFa. Type of data set: cell-based, human. The note with it: 48 h, same concentrations as in MCF-7, p < 0.05. On the procedure:
Subsequently, flow cytometry analysis was conducted on HDFa cells.
as §2

The mark [7] stands for this setting: 24 h, values greater than 100 not calculated, read-out: IC50 (μM) for HDFa cell lines, 24 h.
Setting [8] is: 72 h, values greater than 100 not calculated, read-out: IC50 (μM) for HDFa cell lines, 72 h.
[9] abbreviates: read-out: IC50 (μM) for HDFa cell lines, 48 h, values greater than 100 not calculated.
Where [10] appears, read: MCF7, read-out: IC50 (μM) for MCF‐7 cell lines, 48 h.
Setting [11] is: MCF7, 24 h, read-out: IC50 (μM) for MCF‐7 cell lines, 24 h.
Where [12] appears, read: MCF7, 72 h, read-out: IC50 (μM) for MCF‐7 cell lines, 72 h.

`O=c1[nH]cc(F)c(=O)[nH]1` [5‐FU, 5‐fluorouracil]: the IC50 (commonly the point on the concentration scale where inhibition reaches its midpoint) in the data set with MCF‐7 cell line was 5.06 µM.
Regarding `c1ccc(Cn2nnc(-c3ccccc3)c2-c2nc3ccccc3o2)cc1` [Compound 10], the IC50 in data set [1] is 5 to 30 µg/mL.
As for `c1ccc(-c2cc(-c3nc4ccccc4o3)[nH]n2)cc1` [Compound 11], the IC50 in data set [2] was 120 to 190 nM.
`c1ccc2nc(-c3nc4ccccc4o3)cnc2c1` [Compound 12]: the figures for the IC50 in the data set with MCF‐7 and in the data set with MDA‐MB‐231 were 530 nM and 500 nM, respectively.
As to `COc1ccc2oc(C(=O)N3CCCCC3)nc2c1` [Compound 14], the G0/G1 phase arrest with MCF‐7 cells [3] is listed as 71.2%.
In the case of `c1ccc2oc(CNCc3nc4ccccc4o3)nc2c1` [Compound 16], in the data set on Vero healthy cell line, the “Cytotoxicity against Vero healthy cell line” value is “minimal cytotoxicity”. Moreover, the IC50 in data set [4] (range across A549, A498, HeLa, HepG2) is 560 to 2240 nM. Besides, the “Selectivity for A549 lung cancer cell line compared to other tested cancer cell lines” value in [4] is on record as “fourfold higher selectivity”.
For the molecule `COc1ccc2oc(-c3ccc(-c4nc5ccccc5o4)[nH]3)nc2c1` [Compound B8, 2‐(5‐(Benzo[d]Oxazol‐2‐Yl)‐1H‐Pyrrol‐2‐Yl)‐5‐Methoxybenzo[d]Oxazole], the IC50 is not below 100 µM with HDFa cell lines (setting [7]); not below 100 µM with HDFa cell lines (setting [8]); not below 100 µM with HDFa cell lines (setting [9]); 1.89 ± 0.12 µM with MCF‐7 cell lines (setting [10]); 4.4 ± 0.79 µM in the data set on MCF‐7 cell lines (setting [11]); 3.09 ± 0.21 µM in the data set on MCF‐7 cell lines (setting [12]). For the same molecule, in the data set with MCF‐7 cells [5], the “Secondary apoptosis vs control” value is on record as “significantly elevated”. Further, the “IC50 in MCF-7 compared to tamoxifen (fold lower)” value (“IC50 … (fold lower)” for short) in the data set on MCF‐7 cell lines was “approximately 8 fold”.
Take `COC(=O)c1ccc2nc(-c3ccc(-c4nc5cc(C)ccc5o4)[nH]3)oc2c1` [Compound B14, Methyl 2‐(5‐(5‐Methylbenzo[d]Oxazol‐2‐Yl)‐1H‐Pyrrol‐2‐Yl)benzo[d]Oxazole‐6‐Carboxylate]: the IC50 with HDFa cell lines (setting [7]) was 94.5 ± 1.37 µM; in the data set with HDFa cell lines (setting [8]), 97.4 ± 2.83 µM; with HDFa cell lines (setting [9]), 96.3 ± 1.38 µM; in the data set on MCF‐7 cell lines (setting [10]), 0.95 ± 1.01 µM; with MCF‐7 cell lines (setting [11]), 3.28 ± 0.74 µM; in the data set with MCF‐7 cell lines (setting [12]) it was 3.02 ± 2.18 µM. Also, in the data set on MCF‐7 cells [5], the “Necrosis percentage vs control” value is recorded as “significant changes in all groups except for the B14 group”. For the same molecule, the “Change of G2 phase averages vs control” value with MCF‐7 cells [6] is “No significant changes”. In addition, the “Change of G1 phase vs control” value in the data set with MCF‐7 cells [6] is recorded as “significant increase”. The “Change of S phase vs control” value in the data set on MCF‐7 cells [6] is “corresponding decrease”. The “IC50 … (fold lower)” value in the data set with MCF‐7 cell lines is “approximately 8 fold”.
As for `COC(=O)c1ccc2nc(-c3ccc(-c4nc5cc(OC)ccc5o4)[nH]3)oc2c1` [Compound B18, Methyl 2‐(5‐(5‐Methoxybenzo[d]Oxazol‐2‐Yl)‐1H‐Pyrrol‐2‐Yl)benzo[d]Oxazole‐6‐Carboxylate], the IC50 was 98.3 ± 1.58 µM with HDFa cell lines (setting [7]); not below 100 µM in the data set on HDFa cell lines (setting [8]); not below 100 µM with HDFa cell lines (setting [9]); 1.3 ± 0.98 µM in the data set with MCF‐7 cell lines (setting [10]); 3.53 ± 1.35 µM with MCF‐7 cell lines (setting [11]); 2.69 ± 0.73 µM with MCF‐7 cell lines (setting [12]). In addition, the “Secondary apoptosis vs control” value with MCF‐7 cells [5] was “significantly elevated”. Moreover, in the data set with MCF‐7 cells [6], the “Change of G2 phase averages vs control” value was “No significant changes”. Also, in the data set with MCF‐7 cells [6], the “Change of G1 phase vs control” value is on record as “significant increase”. Further, the “Change of S phase vs control” value with MCF‐7 cells [6] is on record as “corresponding decrease”. Further, the “Average number of viable cells vs control” value with HDFa cells was “significant decrease”. In addition, the “Percentage of necrosis vs control” value in the data set with HDFa cells is reported as “notable increase”. The “IC50 … (fold lower)” value in the data set with MCF‐7 cell lines is reported as “approximately 8 fold”.
As to `CC/C(=C(\c1ccccc1)c1ccc(OCCN(C)C)cc1)c1ccccc1` [Tamoxifen, reference compound], the “Secondary apoptosis vs control” value in the data set on MCF‐7 cells [5] is “significantly elevated”. Moreover, in the data set on MCF‐7 cells [6], the “Change of G2 phase averages vs control” value was “No significant changes”, the “Change of G1 phase vs control” value is listed as “significant increase” and the “Change of S phase vs control” value is on record as “corresponding decrease”. In the data set with HDFa cells, the “Average number of viable cells vs control” value is listed as “significant decrease” and the “Percentage of necrosis vs control” value is “notable increase”.
